Each structure is given as a SMILES string.

This passage reports Death, inhibition and IC50 results from ChEMBL document CHEMBL1133941, “Drug design, synthesis, and evaluation of a non-sugar-based selectin antagonist” (Bioorg Med Chem Lett, 2001).

Test [1] in a line: Cell cytotoxicity of compound was evaluated In vitro in P-selectin mediated cell adhesion assay at a concentration of 30 uM. The test is classed as functional.
In test [2] the target is T1, P-selectin (Homo sapiens) (UniProt P16109).
T1 sequence (whole entry): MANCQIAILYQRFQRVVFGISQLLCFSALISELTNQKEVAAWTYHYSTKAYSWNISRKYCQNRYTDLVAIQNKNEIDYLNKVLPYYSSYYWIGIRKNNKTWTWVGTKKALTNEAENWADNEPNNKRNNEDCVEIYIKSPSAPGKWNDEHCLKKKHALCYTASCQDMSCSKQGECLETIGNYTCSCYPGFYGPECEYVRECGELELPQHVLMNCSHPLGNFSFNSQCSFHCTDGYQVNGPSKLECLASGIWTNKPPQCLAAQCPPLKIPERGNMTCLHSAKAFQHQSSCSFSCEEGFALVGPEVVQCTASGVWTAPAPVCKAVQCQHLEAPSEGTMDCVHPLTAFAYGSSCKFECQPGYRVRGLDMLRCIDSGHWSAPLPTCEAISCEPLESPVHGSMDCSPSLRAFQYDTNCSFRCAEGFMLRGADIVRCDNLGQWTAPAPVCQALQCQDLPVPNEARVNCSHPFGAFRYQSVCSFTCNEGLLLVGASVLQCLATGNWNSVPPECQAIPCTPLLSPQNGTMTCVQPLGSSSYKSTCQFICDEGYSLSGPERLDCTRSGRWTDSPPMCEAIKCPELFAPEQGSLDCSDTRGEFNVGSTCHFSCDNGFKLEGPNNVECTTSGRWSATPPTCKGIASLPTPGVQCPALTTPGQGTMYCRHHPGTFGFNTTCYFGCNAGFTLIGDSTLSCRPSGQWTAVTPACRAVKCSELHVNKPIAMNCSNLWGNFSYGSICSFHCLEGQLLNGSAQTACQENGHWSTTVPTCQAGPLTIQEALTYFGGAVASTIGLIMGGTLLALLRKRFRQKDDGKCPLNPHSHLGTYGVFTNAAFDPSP
As to the kind of experiment: Inhibitory activity was evaluated In vitro in Selectin P mediated cell adhesion assay at a concentration of 30uM.

For the next test, the target named is T2, P-selectin (Homo sapiens, UniProt P16109).
T2 sequence (P16109 whole entry): T1 sequence (whole entry)
As to the kind of experiment: Inhibitory activity of compound against Selectin P/sLex binding was determined.

Broadly, the inhibition is the change of the read-out against control, counted positive when it falls. The molecule `CCCCCCCCCCCCCCC(CCCCCCCCCCCCCC)C(=O)N[C@@H](CO[C@@H]1O[C@@H](C)[C@@H](O)[C@H](O)[C@@H]1O)C(=O)N[C@@H](CCC(=O)O)C(=O)NC` returned a Death in test [1] of 1.7%. Further, in test [2], the inhibition came to 42.8%.

With `CCCCCCCCCCCCCCC(CCCCCCCCCCCCCC)CNC(=O)c1cc(CSC2OC(C)C(O)C(O)C2O)cc(C(=O)NCCC(=O)O)c1` (centres undefined), in test [1], the Death was found to be 2.8%. Besides, the inhibition in test [2] worked out at 31.3%.

As for `CCCCCCCCCCCCCCC(CCCCCCCCCCCCCC)CNC(=O)c1cc(CSC2OC(C)C(O)C(O)C2O)cc(C(=O)NC(CCC(=O)O)C(=O)NC)c1` (centres undefined), the Death in test [1] was 5.3%. Also, in test [2], the inhibition is -0.9%.

A word on the IC50: it is the point on the concentration scale where inhibition reaches its midpoint. Read a low IC50 as greater potency in that assay. Regarding `CCCCCCCCCCCCCCC(CCCCCCCCCCCCCC)CNC(=O)c1cc(CSC2OC(C)C(O)C(O)C2O)cc(C(=O)O)c1` (centres undefined), the IC50 on P-selectin amounted to 10.6 µM. The molecule further registered a Death in test [1] of 1.9%. In addition, the inhibition in test [2] was 75.7%.
